Assay results published in ChEMBL document CHEMBL1765013, “Structure-activity relationships in a series of C2-substituted gluco-configured tetrahydroimidazopyridines as β-glucosidase inhibitors” (Bioorg Med Chem, 2011).

Assay: Inhibition of sweet almond beta-glucosidase after 10 mins using 4-nitrophenylbeta-D-glucopyranoside as a substrate by Lineweaver-Burk and double reciprocal analysis
Set-up: species or system Prunus dulcis

| Ki [nM] | Compound |
| --- | --- |
| 24.5 | OC[C@@H]1[C@@H](O)[C@H](O)[C@@H](O)c2nc(CCc3ccc(-c4ccccc4)cc3)cn21 |
| 3.2 | OC[C@@H]1[C@@H](O)[C@H](O)[C@@H](O)c2nc(CCc3ccc(F)cc3)cn21 |
| 1.9 | OC[C@@H]1[C@@H](O)[C@H](O)[C@@H](O)c2nc(CCc3ccccc3)cn21 |
| 6.8 | O=C(CCc1cn2c(n1)[C@H](O)[C@@H](O)[C@H](O)[C@H]2CO)Nc1ccccc1 |
| 0.64 | CC(C)(C)CCc1cn2c(n1)[C@H](O)[C@@H](O)[C@H](O)[C@H]2CO |
| 56.1 | OC[C@@H]1[C@@H](O)[C@H](O)[C@@H](O)c2nc(CCc3ccc(C4CCCCC4)cc3)cn21 |
| 2 | COc1ccc(CCc2cn3c(n2)[C@H](O)[C@@H](O)[C@H](O)[C@H]3CO)cc1 |
| 3.5 | CC(C)(CCc1cn2c(n1)[C@H](O)[C@@H](O)[C@H](O)[C@H]2CO)C(=O)Nc1ccccc1 |
| 0.58 | Cc1ccc(CCc2cn3c(n2)[C@H](O)[C@@H](O)[C@H](O)[C@H]3CO)cc1 |
| 10.7 | CCCCCCCCc1cn2c(n1)[C@H](O)[C@@H](O)[C@H](O)[C@H]2CO |

| Compound | Ki [nM] |
| --- | --- |
| OC[C@@H]1[C@@H](O)[C@H](O)[C@@H](O)c2nccn21 | 100 |
